Read-outs that look alike come from different tables or passages of the source.
Experiments:
[1] = system: Food-Deprived Rats; assay: Rodent Feeding: Food Intake in Food-Deprived Rats (MC-4); format: in vivo, rat; settings: Rattus norvegicus
From the text: Rodent Feeding: Food Intake in Food-Deprived Rats (MC-4)
Male Long-Evans rats (180–200 grams) were housed individually and maintained on a once-a-day feeding schedule (i.e.10 a.m. until 4 p.m.) for five days following quarantine to allow the animals to acclimate to feeding on powdered chow (#5002 PMI Certified Rodent Meal) during the allotted time. The chow was made available in an open jar, anchored in the cage by a wire, with a metal follower covering the food to minimize spillage. Water was available ad-libitum.
Animals were fasted for 18 hours prior to testing. At the end of the fasting period, animals were administered either a test compound or vehicle. Vehicle and test compound were administered either orally (5 mL/kg) 60 minutes prior to the experiment, subcutaneously (1 mL/kg) 30 minutes prior to the experiment, or intraperitoneally (1 mL/kg) 30 minutes prior to the experiment. Test compounds were administered orally as a suspension in aqueous 0.5% methylcellulose-0.4% Tween 80, or intraperitoneally as a solution or suspension in PEG 200; compound concentrations typically ranged from 1 mg/kg to 100 mg/kg, preferably from 10–30 mg/kg. Food intake was measured at 2, 4, and 6 hours after administration by weighing the special jar containing the food before the experiment and at the specified times. Upon completion of the experiment, all animals were given a one-week washout period before re-testing.
Following the procedure described above, select compounds of the present invention were tested to measure the effect on food intake in fasted rats, as listed in Table 5 and 6.

[2] = system: Cortical Cells; assay: Neurite Cell Outgrowth Assay, cortical cells; format: cell-based; settings: Rattus norvegicus; 50 nM; percent change over the vehicle response; NA = no change/not active
In short: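 Rat E18 hippocampal or cortical neurons plated at 30,000 cells/well, treated 24 h after plating with compound at 50 nM, refreshed on day 3. At one week, fixed and MAP-2 immunostained with FITC secondary, read by fluorescence; outgrowth given as percent change versus vehicle.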

[3] = system: Male Long-Evans rats, facial nerve compression; assay: In vivo Facial Nerve Compression Model; parameters: species or system rat; settings: for Percent Recovery of whisker movement D9 / Percent Recovery of whisker movement D10 / Percent Recovery of whisker movement D11 / Percent Recovery of whisker movement D12 / Percent Recovery of whisker movement D13 / Percent Recovery of whisker movement D14: test compounds p.o. 20 mg/kg bid, αMSH s.c. 70 ug/each 48 hr; for Percent Recovery of whisker movement D9: % of sham-operated side; for recovery time to restore whisker muscle movement: lesioned rats vs vehicle controls (p<0.05), p.o. 20 mg/kg bid
From the text: The ability of test compound to provide neuro-protective or neuro-regenerative effects was investigated in a facial nerve compression model. Facial nerve motor axons arise exclusively from neurons within the pons in a well-defined nucleus. Facial nerve compression results in retrograde reactions proximal to the lesion site and Wallerian degeneration at its distal part, which causes diminished whisker movement on the lesioned side.
Male Long-Evans rats (150–180 g) were anesthetized with 3–5% isoflorane for induction and 2% for maintenance during the surgical procedures. The right facial nerve was exposed and compressed with forceps for 30 sec at its exit from the stylomastoid foramen. The left facial nerve was sham-operated and served as an internal control. […] The following morphological abnormalities associated with the functional deficit were observed:
After recovery from anesthesia, the rats were randomly divided into groups for dosing with vehicle, αMSH or test compound, with 6 animals per group. αMSH (s.c., 70 ug/each 48 hr) was used as a positive control. Test compounds were dosed p.o. at 20 mg/kg bid for 14 days. Restoration of whisker movement was monitored daily after the operation using two criteria:
(1) frequency of whisker movement on the lesioned side relative to the opposite side (sham-operated) which served as the baseline control
(2) semi-quantitative measurements (0 to 4+) on strength of the whisker muscles, characterized based on observation of the percentage of moved whiskers, muscle tone of whisker muscles, and the position of the nose. For all observations, the experimental design was blind to the behavioral observer.
The recovery rate of the whisker movement was expressed as percentage of its own internal control (sham-operated), as listed in Table 8.

[4] = system: human sebocytes; assay: cells; format: cell-based; settings: read-out: % Inh Unknown lipid synthesis
[5] = ip, 2 h, ip, read-out: Change in Food Intake 0–2 hrs (%)
[6] = ip, 6 h, ip, read-out: Change in Food Intake 2–6 hrs (%)
[7] = po, 2 h, po, read-out: Change in Food Intake 0–2 hrs (%)
[8] = po, 6 h, po, read-out: Change in Food Intake 2–6 hrs (%)

SMILES	change in vivo at 30 mg/kg [1, 7] [%]	change in vivo at 30 mg/kg [1, 8] [%]	activation at 0.05 µM [2] [%]	Percent Recovery of whisker movement D9 [3] [%]	Percent Recovery of whisker movement D10 [3] [%]	Percent Recovery of whisker movement D11 [3] [%]	Percent Recovery of whisker movement D12 [3] [%]	Percent Recovery of whisker movement D13 [3] [%]	Percent Recovery of whisker movement D14 [3] [%]	recovery time to restore whisker muscle movement [3]	further results
COc1ccccc1-[n+]1sc(Nc2ccc(C)cc2)nc1-c1ccccc1.[Br-] [Compound 31, 2-(2-methoxyphenyl)-3-phenyl-5-p-tolylamino-[1,2,4]thiadiazol-2-ium]	-23.6	31.5	16	0	3.5	67.8	98.5	100	100	accelerated the recovery time	change in vivo at 1 mg/kg [1, 5]: -20.6%; change in vivo at 3 mg/kg [1, 5]: -37.8%; change in vivo at 1 mg/kg [1, 6]: -71.2%; change in vivo at 3 mg/kg [1, 6]: -50%; change in vivo at 1 mg/kg [1, 7]: 1.2%; change in vivo at 3 mg/kg [1, 7]: -9%; change in vivo at 10 mg/kg [1, 7]: -10.1%; change in vivo at 1 mg/kg [1, 8]: 19.5%; change in vivo at 3 mg/kg [1, 8]: 52.1%; change in vivo at 10 mg/kg [1, 8]: 39.7%
COc1ccccc1-c1nc(Nc2ccccc2)s[n+]1-c1ccccc1OC.[Br-] [Compound 74, 2-(2-methoxyphenyl)-3-(2-methoxyphenyl)-5-phenylamino-[1,2.4]thiadiazol-2-ium]	–	–	–	–	–	–	–	–	–	–	inhibition at 0.4 µM [4]: 75%; inhibition at 0.6 µM [4]: 80%
c1ccc(CNc2nc(-c3ccccc3)[n+](-c3ccccc3)s2)cc1 [Compound 84]	-7	32	17	0	4.8	35.1	90.0	98.3	100	accelerated the recovery time	–

— patent publication US7049331B2, “1,2,4-thiadiazole derivatives as melanocortin receptor modulators” (Ortho-McNeil Pharmaceutical, Inc., priority 2001, dated 2006)
